From US20240382450A1, “COMPOSITION OF B-CAR[…] A STATIN, AND METHODS OF USING SAME” (OrthoTreat Ltd., priority 2021, published 2024) come the findings set out here.

Series [1] deals with Human primary osteoblast cells. As to conditions: osteoblasts, 24 and 96 hours, tested 0 to 6,561 μM. The procedure: (§1) In vitro cytotoxicity & proliferation assay (basal) are being performed on human osteoblasts and stem cells monolayers.
Human primary osteoblast cells are maintained in a 37° C. humidified incubator with 5% CO2 atmosphere. Cells are cultured in Primary Osteoblast Media containing Primary Osteoblast Culture Supplement and 1% of the penicillin/streptomycin stock solution.

The test system of another series is MUTZ-3 cells. As to conditions: MUTZ-3, 24 and 96 hours, tested 0 to 6,561 μM. Here is the method: as §1
As a human primary osteoclast cell is unable to proliferate, MUTZ-3, a human cell line model for osteoclast differentiation is also being used. MUTZ-3 cells are maintained in a 37° C. humidified incubator with 5% CO2 atmosphere. Cells are cultured in Dulbecco's modified Eagle's Medium (DMEM) supplemented with 10% foetal calf serum and 1% of the penicillin streptomycin stock solution.

For the next series, the system named is femoral bone fracture. The series is described as follows: Bone quality examined after 35 treatment days (decalcified and non-decalcified). Type of series: in vivo, Sprague Dawley rats. As to conditions: following 35 treatment days, none-decalcification. Here is the method:
Pseudo-fractures were created by making a trough on one surface of the femoral shaft through one side of the cortex. The compositions were administered locally by daily injection. Animals: Naive male Sprague Dawley rats (SD rats), 12 weeks old, around 350 g. Right leg was treated while the left leg serves as a control (vehicle).
Bone quality was examined after 35 treatment days. For the G1−B+L group, cell proliferation was improved by >44% compared to untreated bone.
Bone endosteal & periosteal proliferation, defect fill and bone quality were evaluated following 35 treatment days of femoral bone fracture with β-caryophyllene (none-decalcification).

As for (−)-β-caryophyllene, in series [1], the “concentration without significant cytotoxic effect” value is given as “up to 27 μM”. In the series with MUTZ-3 cells, the “concentration without significant cytotoxic effect” value is reported as “up to 27 μM”. Besides, in the series with femoral bone fracture, the bone quality entry is “Significant improvement”; the defect fill result was “Significant improvement”; the “endosteal and periosteal proliferation” value was “Significant improvement”.
